Each structure is given as a SMILES string. Where a SMILES comes first, the peptide text is derived from it. Bridges are numbered along the chain shown (N, C = ends). [ ]: non-standard residue; d: D form. The star is where a group is joined. Bip = N[C@@H](Cc1ccc(-c2ccccc2)cc1)C(=O)O; Phe(3-Cl) = N[C@@H](Cc1cccc(Cl)c1)C(=O)O; Phe(3-Me) = Cc1cccc(C[C@H](N)C(=O)O)c1; 3Pal = N[C@@H](Cc1cccnc1)C(=O)O; 4Pal = N[C@@H](Cc1ccncc1)C(=O)O; Cha = N[C@@H](CC1CCCCC1)C(=O)O; Carboxymethyl = O=C(O)C*; Orn = NCCC[C@H](N)C(=O)O; Dab = NCC[C@H](N)C(=O)O; Dap = NC[C@H](N)C(=O)O

Broadly, the IC50 is the point on the concentration scale where inhibition reaches its midpoint.

T1 sequence (Q15116 25-288): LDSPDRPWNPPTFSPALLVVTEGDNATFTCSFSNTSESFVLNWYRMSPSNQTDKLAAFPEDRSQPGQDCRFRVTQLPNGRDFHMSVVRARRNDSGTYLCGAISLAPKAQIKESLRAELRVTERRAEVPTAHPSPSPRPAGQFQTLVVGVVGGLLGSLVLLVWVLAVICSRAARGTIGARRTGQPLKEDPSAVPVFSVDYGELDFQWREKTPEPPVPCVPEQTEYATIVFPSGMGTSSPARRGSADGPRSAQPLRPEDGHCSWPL

The first assay concerns the target T1, human PD-1 / PD-L1-Ig binding on Jurkat cell line over-expressing human PD-1 (Jurkat-PD-1) (Homo sapiens, UniProt Q15116).
T1 construct: expressed in transfected cells; host or cells: Jurkat
The assay is described as follows: Jurkat-PD-1 Cell Binding High-Content Screening Assay (CBA). The note with it: Jurkat HPD1_PDL1 IC50, Jurkat-PD-1 cells, PE-labeled PD-L1-Ig 20 nM final. The format is cell-based. Put shortly:
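Cell-bound PE-labeled PD-L1-Ig (20 nM final, 1 h) measured by high-content imaging after fixation and Hoechst 33342 counterstain. Compound was applied first for 2 h at 37° C. to Jurkat cells over-expressing human PD-1 in DMEM with 10% FCS.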
`Cc1cccc(C[C@@H]2NC(=O)[C@H](CC(=O)O)NC(=O)[C@H](Cc3ccc(C(=O)O)cc3)NC(=O)[C@H](Cc3ccncc3)NC(=O)CSC[C@@H](C(=O)N[C@@H](C)C(N)=O)NC(=O)[C@H]([C@@H](C)O)NC(=O)[C@H](C(C)C)NC(=O)[C@H](CC3CCCCC3)NC(=O)[C@H](Cc3c[nH]cn3)NC(=O)[C@@H](CC(C)C)NC(=O)[C@H](CCCN)NC(=O)[C@H](C(C)C)NC(=O)[C@H](Cc3ccc(-c4ccccc4)cc3)NC(=O)[C@H](C(C)C)NC2=O)c1` [Compound 1581] returned an IC50 of 0.0224 µM. `Cc1cccc(C[C@@H]2NC(=O)[C@H](CC(=O)O)NC(=O)[C@H](Cc3ccncc3)NC(=O)[C@H](Cc3ccc(OCC(=O)O)cc3)NC(=O)CSC[C@@H](C(=O)NCC(N)=O)NC(=O)[C@H](CO)NC(=O)[C@H](C(C)C)NC(=O)[C@H](CC3CCCCC3)NC(=O)[C@H](Cc3c[nH]cn3)NC(=O)[C@@H](CC(C)C)NC(=O)[C@H](CCCN)NC(=O)[C@H](C(C)C)NC(=O)[C@H](Cc3ccc(-c4ccccc4)cc3)NC(=O)[C@H](CC(C)C)NC2=O)c1` [Compound 1585] ({CH2CO}-Y(Carboxymethyl)[4Pal]D[Phe(3-Me)]L[Bip]V[Orn][dL]H[Cha]VSCG-NH2; thioether N-14) displayed an IC50 of 0.0504 µM.

Still in this assay, the particulars now being: Jurkat-PD-1 cells, PE-labeled PD-L1-Ig 20 nM final; read-out: Jurkat HPD1_PDL1 IC50.
Consider `CC(C)C[C@H]1NC(=O)[C@H](CCCN)NC(=O)[C@H](C(C)C)NC(=O)[C@H](Cc2ccc(-c3ccccc3)cc2)NC(=O)[C@H](C(C)C)NC(=O)[C@H](Cc2cccc(Cl)c2)NC(=O)[C@H](CC(=O)O)NC(=O)[C@H](Cc2ccc(OCC(=O)O)cc2)NC(=O)[C@H](Cc2ccc(OCC(=O)O)cc2)NC(=O)CSC[C@@H](C(=O)N[C@@H](C)C(N)=O)NC(=O)[C@H]([C@@H](C)O)NC(=O)[C@H](C(C)C)NC(=O)[C@H](CC2CCCCC2)NC(=O)[C@H](CCN)NC1=O` [Compound 1573], for which the IC50 was found to be 0.0181 µM.

Take `CC(C)C[C@H]1NC(=O)[C@H](CCCN)NC(=O)[C@H](C(C)C)NC(=O)[C@H](Cc2ccc(-c3ccccc3)cc2)NC(=O)[C@H](C(C)C)NC(=O)[C@H](Cc2cccc(C(F)(F)F)c2)NC(=O)[C@H](CC(=O)O)NC(=O)[C@H](Cc2ccc(OCC(=O)O)cc2)NC(=O)[C@H](Cc2ccc(OCC(=O)O)cc2)NC(=O)CSC[C@@H](C(=O)N[C@@H](C)C(N)=O)NC(=O)[C@H]([C@@H](C)O)NC(=O)[C@H](C(C)C)NC(=O)[C@H](CC2CCCCC2)NC(=O)[C@H](CCN)NC1=O` [Compound 1574]: the IC50 amounted to 0.0304 µM. On the same count and under the same terms, then `CC(C)C[C@H]1NC(=O)[C@H](CCCN)NC(=O)[C@H](C(C)C)NC(=O)[C@H](Cc2ccc(-c3ccccc3)cc2)NC(=O)[C@H](C(C)C)NC(=O)[C@H](Cc2cccc(Cl)c2)NC(=O)[C@H](CC(=O)O)NC(=O)[C@H](Cc2ccc(OCC(=O)O)cc2)NC(=O)[C@H](Cc2ccncc2)NC(=O)CSC[C@@H](C(=O)N[C@@H](C)C(N)=O)NC(=O)[C@H]([C@@H](C)O)NC(=O)[C@H](C(C)C)NC(=O)[C@H](CC2CCCCC2)NC(=O)[C@H](CCN)NC1=O` [Compound 1575], with 0.0166 µM; and `CC(C)C[C@H]1NC(=O)[C@H](CCCN)NC(=O)[C@H](C(C)C)NC(=O)[C@H](Cc2ccc(-c3ccccc3)cc2)NC(=O)[C@H](C(C)C)NC(=O)[C@H](Cc2cccc(C(F)(F)F)c2)NC(=O)[C@H](CC(=O)O)NC(=O)[C@H](Cc2ccc(OCC(=O)O)cc2)NC(=O)[C@H](CN)NC(=O)CSC[C@@H](C(=O)N[C@@H](C)C(N)=O)NC(=O)[C@H]([C@@H](C)O)NC(=O)[C@H](C(C)C)NC(=O)[C@H](CC2CCCCC2)NC(=O)[C@H](CCN)NC1=O` [Compound 1576], with 0.0303 µM; and `CC(C)C[C@H]1NC(=O)[C@H](CCCN)NC(=O)[C@H](C(C)C)NC(=O)[C@H](Cc2ccc(-c3ccccc3)cc2)NC(=O)[C@H](C(C)C)NC(=O)[C@H](Cc2cccc(C(F)(F)F)c2)NC(=O)[C@H](CC(=O)O)NC(=O)[C@H](Cc2ccc(OCC(=O)O)cc2)NC(=O)[C@H](Cc2ccncc2)NC(=O)CSC[C@@H](C(=O)N[C@@H](C)C(N)=O)NC(=O)[C@H]([C@@H](C)O)NC(=O)[C@H](C(C)C)NC(=O)[C@H](CC2CCCCC2)NC(=O)[C@H](CCN)NC1=O` [Compound 1577], with 0.0121 µM. On the same count and under the same terms, the same measure for `CC(C)C[C@H]1NC(=O)[C@H](CCCN)NC(=O)[C@H](C(C)C)NC(=O)[C@H](Cc2ccc(-c3ccccc3)cc2)NC(=O)[C@H](C(C)C)NC(=O)[C@H](Cc2cccc(Cl)c2)NC(=O)[C@H](CC(=O)O)NC(=O)[C@H](Cc2ccncc2)NC(=O)[C@H](CN)NC(=O)CSC[C@@H](C(=O)N[C@@H](C)C(N)=O)NC(=O)[C@H]([C@@H](C)O)NC(=O)[C@H](C(C)C)NC(=O)[C@H](CC2CCCCC2)NC(=O)[C@H](CCN)NC1=O` [Compound 1578] ({CH2CO}-[Dap][4Pal]D[Phe(3-Cl)]V[Bip]V[Orn][dL][Dab][Cha]VTCA-NH2; thioether N-14): 0.035 µM. On the same count and under the same terms, the same measure for `Cc1cccc(C[C@@H]2NC(=O)[C@H](CC(=O)O)NC(=O)[C@H](Cc3ccc(OCC(=O)O)cc3)NC(=O)[C@H](CN)NC(=O)CSC[C@@H](C(=O)N[C@@H](C)C(N)=O)NC(=O)[C@H]([C@@H](C)O)NC(=O)[C@H](C(C)C)NC(=O)[C@H](CC3CCCCC3)NC(=O)[C@H](Cc3cnc[nH]3)NC(=O)[C@@H](CC(C)C)NC(=O)[C@H](CCCN)NC(=O)[C@H](C(C)C)NC(=O)[C@H](Cc3ccc(-c4ccccc4)cc3)NC(=O)[C@H](C(C)C)NC2=O)c1` [Compound 1579]: 0.0178 µM; for `Cc1cccc(C[C@@H]2NC(=O)[C@H](CC(=O)O)NC(=O)[C@H](Cc3ccc(OCC(=O)O)cc3)NC(=O)[C@H](Cc3cccnc3)NC(=O)CSC[C@@H](C(=O)NCC(N)=O)NC(=O)[C@H](CO)NC(=O)[C@H](C(C)C)NC(=O)[C@H](CC3CCCCC3)NC(=O)[C@H](Cc3cnc[nH]3)NC(=O)[C@@H](CC(C)C)NC(=O)[C@H](CCCN)NC(=O)[C@H](C(C)C)NC(=O)[C@H](Cc3ccc(-c4ccccc4)cc3)NC(=O)[C@H](CC(C)C)NC2=O)c1` [Compound 1582] ({CH2CO}-[3Pal]Y(Carboxymethyl)D[Phe(3-Me)]L[Bip]V[Orn][dL]H[Cha]VSCG-NH2; thioether N-14): 0.0362 µM; for `Cc1cccc(C[C@@H]2NC(=O)[C@H](CC(=O)O)NC(=O)[C@H](Cc3ccncc3)NC(=O)[C@H](CN)NC(=O)CSC[C@@H](C(=O)N[C@@H](C)C(N)=O)NC(=O)[C@H]([C@@H](C)O)NC(=O)[C@H](C(C)C)NC(=O)[C@H](CC3CCCCC3)NC(=O)[C@H](Cc3cnc[nH]3)NC(=O)[C@@H](CC(C)C)NC(=O)[C@H](CCCN)NC(=O)[C@H](C(C)C)NC(=O)[C@H](Cc3ccc(-c4ccccc4)cc3)NC(=O)[C@H](C(C)C)NC2=O)c1` [Compound 1583]: 0.02 µM.

In the case of `Cc1cccc(C[C@@H]2NC(=O)[C@H](CC(=O)O)NC(=O)[C@H](Cc3ccc(O)cc3)NC(=O)[C@H](CC(N)=O)NC(=O)CSC[C@@H](C(=O)N[C@@H](C)C(N)=O)NC(=O)[C@H]([C@@H](C)O)NC(=O)[C@H](C(C)C)NC(=O)[C@H](CC3CCCCC3)NC(=O)[C@H](Cc3cnc[nH]3)NC(=O)[C@@H](CC(C)C)NC(=O)[C@H](CCCN)NC(=O)[C@H](C(C)C)NC(=O)[C@H](Cc3ccc(-c4ccccc4)cc3)NC(=O)[C@H](C(C)C)NC2=O)c1` [Compound 1586] ({CH2CO}-NYD[Phe(3-Me)]V[Bip]V[Orn][dL]H[Cha]VTCA-NH2; thioether N-14), the IC50 stood at 0.0177 µM.
